These results are taken from ChEMBL document CHEMBL1139578, “(1H-imidazo[4,5-c]pyridin-2-yl)-1,2,5-oxadiazol-3-ylamine derivatives: further optimisation as highly potent and selective MSK-1-inhibitors” (Bioorg Med Chem Lett, 2005).

A word on the IC50: it is the concentration that gives 50% inhibition. The low end stands for inhibition by little substance, the high end for a need for much substance. The term inhibition denotes the drop in the measured response relative to a control, in per cent.

Assay [1] concerns the target T1, Ribosomal protein S6 kinase alpha-5 (Homo sapiens, UniProt O75582). Nature of the assay: Inhibitory concentration against MSK-1.
Target sequence in this assay (O75582 whole entry): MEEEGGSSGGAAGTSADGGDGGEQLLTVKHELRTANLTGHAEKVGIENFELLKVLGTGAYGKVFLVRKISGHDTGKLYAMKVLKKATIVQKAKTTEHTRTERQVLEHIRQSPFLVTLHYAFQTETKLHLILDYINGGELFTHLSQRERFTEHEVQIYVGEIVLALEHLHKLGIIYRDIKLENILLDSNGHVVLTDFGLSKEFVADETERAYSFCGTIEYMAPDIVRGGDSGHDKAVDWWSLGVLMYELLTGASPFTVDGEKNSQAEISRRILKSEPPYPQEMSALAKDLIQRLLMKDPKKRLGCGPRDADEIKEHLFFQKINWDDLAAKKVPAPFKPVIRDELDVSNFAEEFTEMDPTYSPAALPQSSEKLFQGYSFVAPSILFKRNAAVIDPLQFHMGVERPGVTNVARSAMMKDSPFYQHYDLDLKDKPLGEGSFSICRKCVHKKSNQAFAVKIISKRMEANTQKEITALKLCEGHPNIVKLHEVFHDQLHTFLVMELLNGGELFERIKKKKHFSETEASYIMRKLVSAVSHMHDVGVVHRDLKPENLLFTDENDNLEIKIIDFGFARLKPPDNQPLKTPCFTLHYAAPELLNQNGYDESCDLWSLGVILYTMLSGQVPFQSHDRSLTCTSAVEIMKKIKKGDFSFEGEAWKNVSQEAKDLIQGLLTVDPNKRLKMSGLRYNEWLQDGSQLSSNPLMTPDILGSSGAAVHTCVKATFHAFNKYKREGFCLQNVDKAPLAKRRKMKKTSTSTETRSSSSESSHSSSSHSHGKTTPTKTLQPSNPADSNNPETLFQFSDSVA
Assay [2] concerns the target 3-phosphoinositide-dependent protein kinase 1 (Homo sapiens) (UniProt O15530). Nature of the assay: Percent inhibition against PDK1 at 10 uM using 100 uM ATP.
Assay [3] addresses Mitogen-activated protein kinase 13 (Homo sapiens) (UniProt O15264). Briefly: Percent inhibition against p38d at 10 uM using 100 uM ATP.
Assay [4] deals with Mitogen-activated protein kinase 11 (Homo sapiens) (UniProt Q15759). Briefly: Percent inhibition against p38b at 10 uM using 100 uM ATP.
Assay [5] addresses Dual specificity mitogen-activated protein kinase kinase 1 (Homo sapiens) (UniProt Q02750). Nature of the assay: Percent inhibition against MKK1 at 10 uM using 100 uM ATP.
Assay [6] addresses T2, Dual specificity tyrosine-phosphorylation-regulated kinase 1A (Homo sapiens, UniProt Q13627). Nature of the assay: Percent inhibition against DYRK1a at 10 uM using 100 uM ATP.
Assay [7] addresses T3, Rho-associated protein kinase 1 (Homo sapiens, UniProt Q13464). Nature of the assay: Inhibitory concentration against selected kinase ROCK1.
Target sequence in this assay (Q13464 whole entry): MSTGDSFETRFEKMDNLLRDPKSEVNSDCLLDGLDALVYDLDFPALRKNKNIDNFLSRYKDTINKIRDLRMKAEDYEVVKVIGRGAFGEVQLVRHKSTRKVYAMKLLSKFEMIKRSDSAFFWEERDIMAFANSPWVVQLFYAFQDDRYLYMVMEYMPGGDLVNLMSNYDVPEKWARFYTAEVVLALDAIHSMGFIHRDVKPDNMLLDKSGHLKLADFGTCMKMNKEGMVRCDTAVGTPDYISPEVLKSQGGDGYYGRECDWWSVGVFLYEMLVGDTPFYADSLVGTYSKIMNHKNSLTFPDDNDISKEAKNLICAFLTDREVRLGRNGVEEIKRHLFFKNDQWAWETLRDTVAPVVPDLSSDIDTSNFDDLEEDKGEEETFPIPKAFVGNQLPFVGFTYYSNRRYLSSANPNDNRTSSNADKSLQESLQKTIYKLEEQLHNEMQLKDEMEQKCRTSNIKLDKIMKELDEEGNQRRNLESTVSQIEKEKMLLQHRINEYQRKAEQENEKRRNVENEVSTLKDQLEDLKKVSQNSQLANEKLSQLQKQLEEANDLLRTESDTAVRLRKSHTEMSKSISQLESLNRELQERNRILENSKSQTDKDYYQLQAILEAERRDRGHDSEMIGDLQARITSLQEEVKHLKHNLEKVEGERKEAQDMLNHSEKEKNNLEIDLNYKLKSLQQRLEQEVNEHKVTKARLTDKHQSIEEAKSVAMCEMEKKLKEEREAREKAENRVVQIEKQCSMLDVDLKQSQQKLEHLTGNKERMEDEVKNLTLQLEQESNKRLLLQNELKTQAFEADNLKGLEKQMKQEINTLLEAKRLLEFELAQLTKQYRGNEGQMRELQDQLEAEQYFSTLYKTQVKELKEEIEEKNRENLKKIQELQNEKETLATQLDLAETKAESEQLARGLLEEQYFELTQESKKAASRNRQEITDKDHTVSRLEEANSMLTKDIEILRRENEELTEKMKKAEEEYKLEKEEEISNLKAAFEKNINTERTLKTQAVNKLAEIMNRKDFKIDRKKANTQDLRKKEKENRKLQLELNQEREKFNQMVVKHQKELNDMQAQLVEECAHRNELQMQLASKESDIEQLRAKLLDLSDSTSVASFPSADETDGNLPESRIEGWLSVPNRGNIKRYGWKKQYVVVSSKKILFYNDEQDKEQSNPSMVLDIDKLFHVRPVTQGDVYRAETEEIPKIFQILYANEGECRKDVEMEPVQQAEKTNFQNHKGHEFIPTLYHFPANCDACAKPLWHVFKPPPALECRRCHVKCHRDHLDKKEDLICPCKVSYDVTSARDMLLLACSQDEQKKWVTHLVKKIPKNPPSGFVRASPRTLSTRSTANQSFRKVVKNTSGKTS
Assay [8] addresses Mitogen-activated protein kinase 1 (Homo sapiens) (UniProt P28482). Briefly: Percent inhibition against MAPK2 at 10 uM using 100 uM ATP.
Assay [9] has as its target cAMP-dependent protein kinase (PKA) (Homo sapiens) (UniProt P22694+P17612+P22612). Nature of the assay: Percent inhibition against PKA at 10 uM using 100 uM ATP. In kind it is protein assay.
Assay [10] concerns the target T3, Rho-associated protein kinase 1. Particulars: 10 uM.
Target sequence in this assay (Q13464 2-1354 limits assumed): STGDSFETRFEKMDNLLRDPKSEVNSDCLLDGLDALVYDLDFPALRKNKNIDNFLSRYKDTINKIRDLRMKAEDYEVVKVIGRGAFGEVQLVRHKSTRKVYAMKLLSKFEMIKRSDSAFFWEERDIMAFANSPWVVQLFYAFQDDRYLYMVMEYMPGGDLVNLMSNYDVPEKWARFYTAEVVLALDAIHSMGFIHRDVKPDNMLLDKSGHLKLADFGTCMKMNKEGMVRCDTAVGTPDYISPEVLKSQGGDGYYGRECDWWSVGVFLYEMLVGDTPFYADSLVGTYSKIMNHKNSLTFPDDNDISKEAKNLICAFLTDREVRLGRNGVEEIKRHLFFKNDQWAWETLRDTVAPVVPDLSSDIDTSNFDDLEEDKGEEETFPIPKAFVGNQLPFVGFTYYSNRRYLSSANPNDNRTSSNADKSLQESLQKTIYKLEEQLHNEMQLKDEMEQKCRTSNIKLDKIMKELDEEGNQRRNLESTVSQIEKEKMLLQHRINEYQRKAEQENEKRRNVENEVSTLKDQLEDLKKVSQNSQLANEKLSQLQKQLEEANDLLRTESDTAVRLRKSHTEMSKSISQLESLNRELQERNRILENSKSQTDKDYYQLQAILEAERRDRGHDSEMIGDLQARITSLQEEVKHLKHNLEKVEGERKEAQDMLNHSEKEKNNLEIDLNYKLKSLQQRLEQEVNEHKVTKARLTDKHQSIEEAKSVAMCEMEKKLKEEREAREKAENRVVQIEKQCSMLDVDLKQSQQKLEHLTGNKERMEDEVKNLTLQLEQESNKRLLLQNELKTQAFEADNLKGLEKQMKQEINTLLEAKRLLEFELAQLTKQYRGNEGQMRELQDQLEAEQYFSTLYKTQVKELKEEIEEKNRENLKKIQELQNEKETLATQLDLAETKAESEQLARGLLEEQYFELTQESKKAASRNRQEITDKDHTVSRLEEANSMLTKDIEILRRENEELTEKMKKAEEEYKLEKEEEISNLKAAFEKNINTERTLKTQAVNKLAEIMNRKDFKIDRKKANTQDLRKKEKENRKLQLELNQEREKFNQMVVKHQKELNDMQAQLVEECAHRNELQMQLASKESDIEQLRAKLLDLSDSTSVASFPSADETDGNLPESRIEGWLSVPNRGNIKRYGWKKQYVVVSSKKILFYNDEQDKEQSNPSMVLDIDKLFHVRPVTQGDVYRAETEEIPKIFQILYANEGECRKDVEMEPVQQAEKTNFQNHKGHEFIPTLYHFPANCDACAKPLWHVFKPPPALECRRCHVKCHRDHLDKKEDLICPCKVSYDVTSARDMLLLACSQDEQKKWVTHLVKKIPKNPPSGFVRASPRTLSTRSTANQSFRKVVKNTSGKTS
Description: Percent inhibition against ROCK1 at 10 uM using 100 uM ATP
The target in assay [11] is Serine/threonine-protein kinase Chk1 (Homo sapiens) (UniProt O14757). Nature of the assay: Percent inhibition against Chk1 at 10 uM using 100 uM ATP.
The target in assay [12] is Serine/threonine-protein kinase Sgk1 (Homo sapiens) (UniProt O00141). Nature of the assay: Percent inhibition against SGK at 10 uM using 100 uM ATP.
The target in assay [13] is Ribosomal protein S6 kinase alpha-1 (Homo sapiens) (UniProt Q15418). Briefly: Percent inhibition against MAPKAP-K1a at 10 uM using 100 uM ATP.
Assay [14] deals with Protein kinase C alpha type (Homo sapiens) (UniProt P17252). Briefly: Percent inhibition against PKCalpha at 10 uM using 100 uM ATP.
Assay [15] addresses T4, Cyclin-dependent kinase 2 (Homo sapiens, UniProt P24941). Briefly: Percent inhibition against CDK2 at 10 uM using 100 uM ATP.
Assay [16] deals with T4, Cyclin-dependent kinase 2. Nature of the assay: Inhibitory concentration against selected kinase CDK2.
In assay [17] the target is 5'-AMP-activated protein kinase catalytic subunit alpha-1 (Homo sapiens) (UniProt Q13131). Briefly: Percent inhibition against AMPK at 10 uM using 100 uM ATP.
Assay [18] addresses Mitogen-activated protein kinase 14 (Homo sapiens) (UniProt Q16539). Briefly: Percent inhibition against p38-alpha at 10 uM using 100 uM ATP.
In assay [19] the target is T2, Dual specificity tyrosine-phosphorylation-regulated kinase 1A. Nature of the assay: Inhibitory concentration against selected kinase DYRK1-alpha.
The target of assay [20] is T5, Ribosomal protein S6 kinase beta-1 (Homo sapiens, UniProt P23443). Nature of the assay: Inhibitory concentration against selected kinase p70S6K.
Target sequence in this assay (P23443 whole entry): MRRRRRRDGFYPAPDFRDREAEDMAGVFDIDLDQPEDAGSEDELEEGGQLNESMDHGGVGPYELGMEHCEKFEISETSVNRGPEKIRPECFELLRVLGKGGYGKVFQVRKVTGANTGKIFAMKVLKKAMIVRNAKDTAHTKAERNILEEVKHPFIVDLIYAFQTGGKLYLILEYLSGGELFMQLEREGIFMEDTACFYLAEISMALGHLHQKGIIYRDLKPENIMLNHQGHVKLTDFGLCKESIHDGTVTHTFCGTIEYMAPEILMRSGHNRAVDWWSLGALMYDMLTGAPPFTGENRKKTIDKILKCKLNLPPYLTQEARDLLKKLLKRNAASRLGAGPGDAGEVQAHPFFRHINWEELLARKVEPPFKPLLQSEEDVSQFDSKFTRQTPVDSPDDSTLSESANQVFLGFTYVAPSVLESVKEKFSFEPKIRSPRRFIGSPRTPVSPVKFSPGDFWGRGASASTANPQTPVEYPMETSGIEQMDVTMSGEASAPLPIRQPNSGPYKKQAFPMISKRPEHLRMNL
For assay [21], the target named is T5, Ribosomal protein S6 kinase beta-1. Particulars: 10 uM.
Target sequence in this assay (P23443 whole entry, looked up): as the sequence (P23443 whole entry) above
Description: Percent inhibition against p70S6K at 10 uM using 100 uM ATP
For assay [22], the target named is Casein kinase II (Homo sapiens) (UniProt P67870+P68400+P19784). Briefly: Percent inhibition against CK2 at 10 uM using 100 uM ATP. Format: protein-complex assay.
In assay [23] the target is Glycogen synthase kinase-3 beta (Homo sapiens) (UniProt P49841). Nature of the assay: Percent inhibition against GSK3-beta at 10 uM using 100 uM ATP.
Assay [24] deals with Mitogen-activated protein kinase 8 (Homo sapiens) (UniProt P45983). Nature of the assay: Percent inhibition against JNK1 at 10 uM using 100 uM ATP.
Assay [25] concerns the target MAP kinase-activated protein kinase 2 (Homo sapiens) (UniProt P49137). Nature of the assay: Percent inhibition against MAPKAP-K2 at 10 uM using 100 uM ATP.
The target in assay [26] is T1, Ribosomal protein S6 kinase alpha-5. Briefly: Percent inhibition against MSK1 at 10 uM using 100 uM ATP.
Target sequence in this assay (O75582 whole entry, looked up): as the sequence (O75582 whole entry) above

Chain of Dual specificity mitogen-activated protein kinase kinase 1 (Homo sapiens) (Q02750 whole entry): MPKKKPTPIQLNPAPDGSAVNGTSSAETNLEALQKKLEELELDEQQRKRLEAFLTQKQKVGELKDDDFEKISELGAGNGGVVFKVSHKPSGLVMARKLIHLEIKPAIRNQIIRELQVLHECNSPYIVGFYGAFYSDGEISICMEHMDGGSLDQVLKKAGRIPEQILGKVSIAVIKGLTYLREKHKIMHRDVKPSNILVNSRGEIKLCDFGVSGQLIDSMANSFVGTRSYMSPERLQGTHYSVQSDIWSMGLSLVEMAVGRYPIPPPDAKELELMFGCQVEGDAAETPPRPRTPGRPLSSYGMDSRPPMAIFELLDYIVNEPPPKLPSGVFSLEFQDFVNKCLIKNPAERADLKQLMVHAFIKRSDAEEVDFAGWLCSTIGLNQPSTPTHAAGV
Chain of Mitogen-activated protein kinase 13 (Homo sapiens) (O15264 whole entry): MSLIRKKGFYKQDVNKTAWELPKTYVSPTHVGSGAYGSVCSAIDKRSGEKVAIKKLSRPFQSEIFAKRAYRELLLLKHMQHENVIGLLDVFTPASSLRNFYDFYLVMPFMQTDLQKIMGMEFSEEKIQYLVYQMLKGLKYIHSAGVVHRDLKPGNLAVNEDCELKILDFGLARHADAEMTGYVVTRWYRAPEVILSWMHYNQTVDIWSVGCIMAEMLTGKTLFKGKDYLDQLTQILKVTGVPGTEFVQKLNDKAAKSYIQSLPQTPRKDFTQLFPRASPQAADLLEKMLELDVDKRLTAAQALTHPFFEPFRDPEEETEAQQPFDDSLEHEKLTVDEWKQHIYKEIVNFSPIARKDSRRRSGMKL

In the case of `NCc1cccc(-n2c(-c3nonc3N)nc3cnccc32)c1`, it took 2.5 nM to reach half-maximal inhibition in assay [1] (IC50).
Same read-out and setting: next, `NCCCn1c(-c2nonc2N)nc2cnccc21`: 22 nM.
Still for that read-out and setting: for `NCCCCn1c(-c2nonc2N)nc2cnccc21` the value was 13 nM.
As to `NCc1ccc(-n2c(-c3nonc3N)nc3cnccc32)cc1`, inhibition in assay [1] was half-maximal at 4 nM (IC50).
The same measure, in the same setting: for `Nc1nonc1-c1nc2cnccc2n1C1CCCNC1` (racemic) the value was 2 nM.
The same measure, in the same setting: next, `CN(C)CCCn1c(-c2nonc2N)nc2cnccc21`: 617 nM; `CCn1c(-c2nonc2N)nc2c(N3CCCC3)nccc21`: 2240 nM.
On to `Nc1nonc1-c1nc2cnccc2n1C1CCCCC1`, for which the half-inhibitory concentration (IC50) in assay [1] was 3 nM.
On to `CCn1c(-c2nonc2N)nc2c(OC)nccc21`, for which, in assay [1], the IC50 worked out at 209 nM.
Same read-out and setting: next, `CCn1c(-c2nonc2N)nc2cncc(CN3CCNCC3)c21`: 1.4 nM; `CCn1c(-c2nonc2N)nc2cncc(CN3CCCCC3)c21`: 7 nM; `CCn1c(-c2nonc2N)nc2cncc(CN3CCC(N)CC3)c21`: 3 nM.
The same measure, in the same setting: next, `CCn1c(-c2nonc2N)nc2c(Oc3ccccc3)nccc21`: 10000 nM; `CCn1c(-c2nonc2N)nc2c(C)nccc21`: 8 nM; `CCOc1nccc2c1nc(-c1nonc1N)n2CC`: 174 nM.
On the same count and under the same terms, for `Nc1nonc1-c1nc2cnccc2n1C1CCNCC1` the value was 17 nM; for `CCc1nccc2c1nc(-c1nonc1N)n2CC`, 229 nM.
`CCn1c(-c2nonc2N)nc2cnccc21`: the half-inhibitory concentration (IC50) in assay [1] was 3 nM; in [7], 13 nM; in [16], 169 nM; in assay [19] it was 110 nM; in assay [20] it was 70 nM. Further, the inhibition is 32% in assay [2]; 6% in assay [3]; 18% in assay [4]; 17% in assay [5]; 94% in assay [6]; 41% in [8]. The inhibition in assay [9] is 75%; in assay [10], 90%; in [11], -6%; in assay [12], 67%; in [13], 97%; in assay [14], 56%. In addition, the inhibition in assay [15] is 84%; in [17] it was 59%; in assay [18], -7%; in assay [21], 95%; in [22], 15%; in assay [23], 90%. In addition, the inhibition in assay [24] stood at 13%; in assay [25] it was 12%; in [26], 96%.
In assay [1], `CCn1c(-c2nonc2N)nc2c(Cl)nccc21` had a concentration for half-maximal inhibition (IC50) of 4 nM.
As to `Nc1nonc1-c1nc2cnccc2n1C1CC1`, the 50% inhibitory concentration (IC50) in [1] was 1.5 nM.
On the same count and under the same terms, for `Nc1nonc1-c1nc2cnccc2n1-c1ccccc1` the value was 6 nM.
As for `CCn1c(-c2nonc2N)nc2cncc(CNC3CCNCC3)c21`, the 50% inhibitory concentration (IC50) is 0.5 nM in [1]; 100 nM in assay [7]; above 10000 nM in assay [16]; 4900 nM in assay [19]; 270 nM in [20].
As for `CCn1c(-c2nonc2N)nc2c(-c3ccccc3)nccc21`, the IC50 in assay [1] came to 813 nM.
